The source of these data is patent publication US4824936A, “(19-Alanine) calcitonin” (Rorer Pharmaceutical Corporation, priority 1987, dated 1989).

Bridge positions count the residues as written; N and C are the ends. Peptide text beside a SMILES is read from it.

The conditions of assay [1]: literature values; cited from earlier work.
Assay [2] has as its system serum calcium concentration.
Method: Biological Assay of Calcitonin Analogs in Vivo
Rats were divided into four groups of seven animals, and each group was assigned at random to a dose of standard or test solution. Low and high doses were chosen from the linear portion of the dose-response curve. For the salmon calcitonin standard, the values were 0.7 and 2.1 mcg. peptide/100 g. body weight (BW). This dose approximates 3 and 9 MU/100 g. […] Peptides were given by subcutaneous injection (0.2 ml/100 g. BW) and blood was withdrawn 1 hour later for serum calcium determination. Sera are processed and analyzed within two hours of collection.

In the case of “(1,7-alpha-L-amino-suberic acid) eel calcitonin”, the hypocalcemic potency result in assay [1] was “about 3400 IU/mg”.

On to “eel calcitonin [synthetic eel calcitonin]”, for which, in assay [1], the hypocalcemic potency result was “around 4300 IU/mg”.

Take `CC(C)C[C@H](NC(=O)[C@H](CCCCN)NC(=O)CNC(=O)[C@H](CC(C)C)NC(=O)[C@@H](NC(=O)[C@@H]1CSSC[C@H](N)C(=O)N[C@@H](CO)C(=O)N[C@@H](CC(N)=O)C(=O)N[C@@H](CC(C)C)C(=O)N[C@@H](CO)C(=O)N[C@@H]([C@@H](C)O)C(=O)N1)C(C)C)C(=O)N[C@@H](CO)C(=O)N[C@@H](CCC(N)=O)C(=O)N[C@@H](CCC(=O)O)C(=O)N[C@@H](CC(C)C)C(=O)N[C@@H](Cc1c[nH]cn1)C(=O)N[C@@H](CCCCN)C(=O)N[C@@H](C)C(=O)N[C@@H](CCC(N)=O)C(=O)N[C@H](C(=O)N[C@@H](Cc1ccc(O)cc1)C(=O)N1CCC[C@H]1C(=O)N[C@@H](CCCNC(=N)N)C(=O)N[C@H](C(=O)N[C@@H](CC(N)=O)C(=O)N[C@H](C(=O)NCC(=O)N[C@@H](CO)C(=O)NCC(=O)N[C@H](C(=O)N1CCC[C@H]1C(N)=O)[C@@H](C)O)[C@@H](C)O)[C@@H](C)O)[C@@H](C)O` [[Ala^19]SCT, [19-Alanine] salmon calcitonin] (H-CSNLSTCVLGKLSQELHKAQTYPRTNTGSGTP-NH2; disulfide 1-7): in assay [2] (rat, in vivo, sc), the biological potency worked out at 5400 IU/mg.

With `CC(C)C[C@H](NC(=O)[C@H](CCCCN)NC(=O)CNC(=O)[C@H](CC(C)C)NC(=O)[C@@H](NC(=O)[C@@H]1CSSC[C@H](N)C(=O)N[C@@H](CO)C(=O)N[C@@H](CC(N)=O)C(=O)N[C@@H](CC(C)C)C(=O)N[C@@H](CO)C(=O)N[C@@H]([C@@H](C)O)C(=O)N1)C(C)C)C(=O)N[C@@H](CO)C(=O)N[C@@H](CCC(N)=O)C(=O)N[C@@H](CCC(=O)O)C(=O)N[C@@H](CC(C)C)C(=O)N[C@@H](Cc1c[nH]cn1)C(=O)N[C@@H](CCCCN)C(=O)N[C@@H](CC(C)C)C(=O)N[C@@H](CCC(N)=O)C(=O)N[C@H](C(=O)N[C@@H](Cc1ccc(O)cc1)C(=O)N1CCC[C@H]1C(=O)N[C@@H](CCCNC(=N)N)C(=O)N[C@H](C(=O)N[C@@H](CC(N)=O)C(=O)N[C@H](C(=O)NCC(=O)N[C@@H](CO)C(=O)NCC(=O)N[C@H](C(=O)N1CCC[C@H]1C(N)=O)[C@@H](C)O)[C@@H](C)O)[C@@H](C)O)[C@@H](C)O` [standard salmon calcitonin, Salmon calcitonin], in assay [2] (standard used in the assay, independently determined), the “biological potency of the standard, independently determined” value is given as “greater than 4,000 IU/mg”.
